Experiment [1] has as its system MKN-74. As to the kind of experiment: Anticancer activity against human MKN-74 cells assessed as inhibition of cell growth incubated for 3 days by MTT assay. Format: functional, cell-based. The note with it: MKN-74, 72 h. A general note: Tetrazolium dyes change colour on reduction, which living cells bring about.
The subject of experiment [2] is MKN-7. Nature of the experiment: Anticancer activity against human MKN-7 cells assessed as inhibition of cell growth incubated for 3 days by MTT assay. Format: functional, cell-based. The conditions noted are these: MKN-7, 72 h.
Experiment [3] has as its target T1, Cadherin-1 (Homo sapiens) (UniProt P12830).
T1 sequence (whole entry): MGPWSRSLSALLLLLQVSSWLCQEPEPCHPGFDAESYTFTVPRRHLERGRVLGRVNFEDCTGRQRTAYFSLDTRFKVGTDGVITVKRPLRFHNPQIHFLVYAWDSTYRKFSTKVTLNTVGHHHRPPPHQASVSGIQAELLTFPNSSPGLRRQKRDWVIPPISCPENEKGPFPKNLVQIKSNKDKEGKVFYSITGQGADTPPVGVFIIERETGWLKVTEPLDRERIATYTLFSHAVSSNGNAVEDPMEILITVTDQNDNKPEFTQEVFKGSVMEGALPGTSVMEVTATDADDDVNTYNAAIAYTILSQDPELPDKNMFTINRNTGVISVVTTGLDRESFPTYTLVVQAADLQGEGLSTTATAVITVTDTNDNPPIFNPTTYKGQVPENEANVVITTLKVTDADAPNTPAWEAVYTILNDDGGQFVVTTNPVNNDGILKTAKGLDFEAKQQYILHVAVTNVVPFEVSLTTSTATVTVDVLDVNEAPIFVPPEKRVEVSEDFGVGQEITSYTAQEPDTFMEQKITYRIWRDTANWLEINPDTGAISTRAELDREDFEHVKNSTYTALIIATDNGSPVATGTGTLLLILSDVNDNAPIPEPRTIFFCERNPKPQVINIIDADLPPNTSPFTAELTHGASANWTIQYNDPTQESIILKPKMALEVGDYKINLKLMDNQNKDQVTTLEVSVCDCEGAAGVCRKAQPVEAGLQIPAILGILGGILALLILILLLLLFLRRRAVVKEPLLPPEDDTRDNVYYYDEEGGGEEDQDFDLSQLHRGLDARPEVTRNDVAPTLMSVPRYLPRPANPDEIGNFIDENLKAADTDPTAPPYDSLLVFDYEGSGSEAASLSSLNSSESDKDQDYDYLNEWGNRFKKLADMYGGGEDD
Nature of the experiment: Binding affinity to human E-cadherin in human MKN-7 cell membrane protein fraction measured after 2 hrs by Western blotting based pull-down assay. It counts as cell membranes. In general terms: Immunoblotting shows a protein as a band on a membrane.

pIC50: −log10 of the molar value. Calls of active or inactive are those of the source. No cut-off for these calls is given here. Where a SMILES comes first, the peptide text is derived from it. [ ]: non-standard residue; d: D form. 2Thi = N[C@@H](Cc1cccs1)C(=O)O; hSer = N[C@@H](CCO)C(=O)O; Nle = CCCC[C@H](N)C(=O)O

As for `CC[C@H](C)[C@H](NC(=O)[C@@H](N)Cc1ccccc1)C(=O)N[C@@H](CC(=O)O)C(=O)N[C@@H](CC(C)C)C(=O)N[C@@H](CC(N)=O)C(=O)N[C@@H](Cc1ccc(O)cc1)C(=O)N[C@@H](CCSC)C(=O)N[C@H](C(=O)N[C@@H](Cc1ccc(O)cc1)C(=O)N[C@@H](Cc1cccs1)C(N)=O)C(C)C` (H-FIDLNYMVY[2Thi]-NH2), the pIC50 (commonly −log10 of the IC50, conventionally taken in molar units) in experiment [1] was 6.01; in experiment [2], 5.06.

In the case of `CCCC[C@H](NC(=O)[C@H](Cc1ccc(O)cc1)NC(=O)[C@@H](NC(=O)[C@H](CCSC)NC(=O)[C@H](Cc1ccc(O)cc1)NC(=O)[C@H](CC(N)=O)NC(=O)[C@H](CC(C)C)NC(=O)[C@H](CC(=O)O)NC(=O)[C@@H](NC(=O)[C@@H](N)Cc1ccccc1)[C@@H](C)CC)C(C)C)C(N)=O` (H-FIDLNYMVY[Nle]-NH2), the pIC50 in experiment [1] is 6.46; in experiment [2], 4.99.

For `CC[C@H](C)[C@H](NC(=O)[C@@H](N)Cc1ccccc1)C(=O)N[C@@H](CC(=O)O)C(=O)N[C@@H](CC(C)C)C(=O)N[C@@H](CC(N)=O)C(=O)N[C@@H](Cc1ccc(O)cc1)C(=O)N[C@@H](CCSC)C(=O)N[C@H](C(=O)N[C@@H](Cc1ccc(O)cc1)C(=O)N[C@@H](CCOC)C(N)=O)C(C)C` (H-FIDLNYMVY[hSer](Me)-NH2), the pIC50 was 6.72 in experiment [1] and 5.35 in experiment [2].

As for `CC[C@H](C)[C@H](NC(=O)[C@@H](N)Cc1ccccc1)C(=O)N[C@@H](CC(=O)O)C(=O)N[C@@H](CC(C)C)C(=O)N[C@@H](CC(N)=O)C(=O)N[C@@H](Cc1ccc(O)cc1)C(=O)N[C@@H](Cc1cccs1)C(=O)N[C@H](C(=O)N[C@@H](Cc1ccc(O)cc1)C(=O)N[C@@H](CCSC)C(N)=O)C(C)C` (H-FIDLNY[2Thi]VYM-NH2), the pIC50 in experiment [1] is 6.02; in experiment [2], 5.20.

Take `CCCC[C@H](NC(=O)[C@H](Cc1ccc(O)cc1)NC(=O)[C@H](CC(N)=O)NC(=O)[C@H](CC(C)C)NC(=O)[C@H](CC(=O)O)NC(=O)[C@@H](NC(=O)[C@@H](N)Cc1ccccc1)[C@@H](C)CC)C(=O)N[C@H](C(=O)N[C@@H](Cc1ccc(O)cc1)C(=O)N[C@@H](CCSC)C(N)=O)C(C)C` (H-FIDLNY[Nle]VYM-NH2): the negative-log IC50 (pIC50) in experiment [1] was 6.70; in experiment [2], 5.79.

In the case of `CCCC[C@H](NC(=O)[C@H](Cc1ccc(O)cc1)NC(=O)[C@H](CC(N)=O)NC(=O)[C@H](CC(C)C)NC(=O)[C@H](CC(=O)O)NC(=O)[C@@H](NC(=O)[C@@H](N)Cc1ccccc1)[C@@H](C)CC)C(=O)N[C@H](C(=O)N[C@@H](Cc1ccc(O)cc1)C(=O)N[C@@H](CCOC)C(N)=O)C(C)C` (H-FIDLNY[Nle]VY[hSer](Me)-NH2), the negative-log IC50 (pIC50) in experiment [1] is 7.15; in experiment [2], 6.21.

Turning to `CC[C@H](C)[C@H](NC(=O)[C@@H](N)Cc1ccccc1)C(=O)N[C@@H](CC(=O)O)C(=O)N[C@@H](CC(C)C)C(=O)N[C@@H](CC(N)=O)C(=O)N[C@@H](Cc1ccc(O)cc1)C(=O)N[C@@H](CCOC)C(=O)N[C@H](C(=O)N[C@@H](Cc1ccc(O)cc1)C(=O)N[C@@H](CCSC)C(N)=O)C(C)C` (H-FIDLNY[hSer](Me)VYM-NH2), the pIC50 in experiment [1] is 6.70; in experiment [2], 5.45.

H-AIDLNYMVYM-OH: the pIC50 in experiment [1] was 5.03; in experiment [2], 5.39.

For H-DLNYMVYM-NH2, the figures for the pIC50 in experiment [1] and in experiment [2] were 4.69 and 4.87, respectively.

As to H-FADLNYMVYM-OH, the pIC50 in experiment [1] is 5.41; in experiment [2] it was 5.36.

Take H-FIALNYMVYM-OH: the pIC50 in experiment [1] is 5.94; in experiment [2], 6.01.

As for H-FIDANYMVYM-OH, the results for the pIC50 in experiment [1] and in experiment [2] were 5.26 and 5.02, respectively.

Regarding H-FIDLAYMVYM-OH, the negative-log IC50 (pIC50) is 5.05 in experiment [1] and 5.24 in experiment [2].

In the case of H-FIDLNAMVYM-OH, the negative-log IC50 (pIC50) in experiment [1] was 5.94; in experiment [2], 5.58.

On to H-FIDLNYAVYM-OH, for which the pIC50 in experiment [1] is 5.04; in experiment [2], 5.52.

In the case of H-FIDLNYFVYM-NH2, the figures for the pIC50 in experiment [1] and in experiment [2] were 5.80 and 5.08, respectively.

In the case of H-FIDLNYLVYM-NH2, the values for the pIC50 in experiment [1] and in experiment [2] were 6.80 and 5.47, respectively.

As for H-FIDLNYMAYM-OH, the results for the pIC50 in experiment [1] and in experiment [2] were 4.79 and 4.83, respectively.

For H-FIDLNYMV-NH2, the negative-log IC50 (pIC50) in experiment [1] was 4.67; in experiment [2], 5.09.

With H-FIDLNYMVAM-OH, the results for the pIC50 in experiment [1] and in experiment [2] were 5.95 and 5.37, respectively.

For the compound H-FIDLNYMVY-NH2, the values for the pIC50 in experiment [1] and in experiment [2] were 4.75 and 5.37, respectively.

H-FIDLNYMVYA-OH: the pIC50 is 5.35 in experiment [1] and 5.06 in experiment [2].

In the case of H-FIDLNYMVYF-NH2, the pIC50 was 6.60 in experiment [1] and 5.16 in experiment [2].

On to H-FIDLNYMVYL-NH2, for which the pIC50 is 5.96 in experiment [1] and 5.01 in experiment [2].

Regarding H-FIDLNYMVYM-NH2, the results for the pIC50 in experiment [1] and in experiment [2] were 6.43 and 5.95, respectively.

H-FIDLNYMVYM-OH: the 50% inhibitory concentration (IC50) (in general, the concentration at which inhibition is half-maximal) came out at 13.2 µg/mL in experiment [1] and 18.9 µg/mL in experiment [2]. Moreover, in experiment [3], the result was Active.

Regarding H-IDLNYMVYM-NH2, the pIC50 in experiment [1] is 4.59; in experiment [2], 4.94.

Consider H-KVDIVAINDP-OH, for which the IC50 in experiment [2] turned out to be 97.3 µg/mL.

Take H-YMVYMFQYDS-OH: the IC50 in experiment [2] is 79.1 µg/mL.

The values above are taken from ChEMBL document CHEMBL5108028 (Bioorg Med Chem, 2022).
